Source: US7161032B2, “Sulfonamide derivatives, insecticides for agricultural and horticultural use, and usage thereof” (Nihon Nohyaku Co., Ltd., priority 2002, dated 2007)

What was measured:
Format in all cases: in vivo
[1] = system: Diamond Back Moth (Plutella xylostella); experiment: Insecticidal effect on diamond back moth (Test Example 1): egg-bearing Chinese cabbage seedling immersed in 50 ppm liquid chemical
Experimental: Adult diamond back moths were released and allowed to oviposit on a Chinese cabbage seedling. Two days after the release, the seedling having the eggs deposited thereon was immersed for about 30 seconds in a liquid chemical prepared by diluting a preparation containing each compound listed in Table 1 or 2 as an active ingredient to adjust the concentration to 50 ppm. After air-dryness, it was allowed to stand in a room thermostated at 25° C. Six days after the immersion, the hatched insects were counted. The mortality was calculated according to the following equation and the insecticidal effect was judged according to the criterion shown below. The test was carried out with triplicate groups of 10 insects. [formula]

[2] = system: Common Cutworm (Spodoptera litura); experiment: Insecticidal effect on common cutworm (Test Example 2): cabbage leaf piece immersed in 50 ppm liquid chemical; details: common cutworm (Spodoptera litura) second-instar larvae, 8 days after inoculation, 25° C.
Experimental: A piece of cabbage leaf (cultivar: Shikidori) was immersed for about 30 seconds in a liquid chemical prepared by diluting a preparation containing each compound listed in Table 1 or 2 as an active ingredient to adjust the concentration to 50 ppm. After air-dryness, it was placed in a plastic Petri dish with a diameter of 9 cm and inoculated with second-instar larvae of common cutworm, after which the dish was closed and then allowed to stand in a room thermostated at 25° C. Eight days after the inoculation, the dead and alive were counted. The mortality was calculated according to the following equation and the insecticidal effect was judged according to the criterion shown in Test Example 1. The test was carried out with triplicate groups of 10 insects. [formula]

[3] = system: Smaller Tea Tortrix (Adoxophyes sp.); experiment: Insecticidal effect on smaller tea tortrix (Test Example 3): tea leaves immersed in 50 ppm liquid chemical; details: smaller tea tortrix (Adoxophyes sp.) larvae, 8 days after inoculation, 25° C., humidity 70%
Experimental: Tea leaves were immersed for about 30 seconds in a liquid chemical prepared by diluting a preparation containing each compound listed in Table 1 or 2 as an active ingredient to adjust the concentration to 50 ppm. After air-dryness, the tea leaves were placed in a plastic Petri dish with a diameter of 9 cm and inoculated with larvae of smaller tea tortrix, after which the dish was allowed to stand in a room thermostated at 25° C. and having a humidity of 70%. Eight days after the inoculation, the dead and alive were counted and the insecticidal effect was judged according to the criterion shown in Test Example 1. The test was carried out with triplicate groups of 10 insects.

## CCNS(=O)(=O)CC(C)NC(=O)c1c(Br)cccc1C(=O)Nc1ccc(C(F)(C(F)(F)F)C(F)(F)F)cc1C (stereo not drawn) [1-212]
[1]
  Insecticidal effect (mortality grade), Test Example 1: A (Mortality 100%)
[2]
  Insecticidal effect (mortality grade), Test Example 2: A (Mortality 100%)
[3]
  Insecticidal effect (mortality grade), Test Example 3: A (Mortality 100%)

## CNS(=O)(=O)CC(C)NC(=O)c1c(I)cccc1C(=O)Nc1ccc(C(F)(C(F)(F)F)C(F)(F)F)cc1C (stereo not drawn) [1-2]
[1]
  Insecticidal effect (mortality grade), Test Example 1: A (Mortality 100%)
[2]
  Insecticidal effect (mortality grade), Test Example 2: A (Mortality 100%)
[3]
  Insecticidal effect (mortality grade), Test Example 3: A (Mortality 100%)

## COc1cccc(OC)c1CNS(=O)(=O)CC(C)NC(=O)c1c(I)cccc1C(=O)Nc1ccc(C(F)(C(F)(F)F)C(F)(F)F)cc1C (stereo not drawn) [1-32]
[1]
  Insecticidal effect (mortality grade), Test Example 1: A (Mortality 100%)
[2]
  Insecticidal effect (mortality grade), Test Example 2: A (Mortality 100%)
[3]
  Insecticidal effect (mortality grade), Test Example 3: A (Mortality 100%)

## Cc1cc(C(F)(C(F)(F)F)C(F)(F)F)ccc1NC(=O)c1cccc(I)c1C(=O)NC(C)CS(=O)(=O)NC(C)C (stereo not drawn) [1-8]
[1]
  Insecticidal effect (mortality grade), Test Example 1: A (Mortality 100%)
[2]
  Insecticidal effect (mortality grade), Test Example 2: A (Mortality 100%)
[3]
  Insecticidal effect (mortality grade), Test Example 3: A (Mortality 100%)

## Cc1cc(C(F)(C(F)(F)F)C(F)(F)F)ccc1NC(=O)c1cccc(Br)c1C(=O)NC(C)CS(=O)(=O)NCc1ccccc1 (stereo not drawn) [1-218]
[1]
  Insecticidal effect (mortality grade), Test Example 1: A (Mortality 100%)
[2]
  Insecticidal effect (mortality grade), Test Example 2: A (Mortality 100%)
[3]
  Insecticidal effect (mortality grade), Test Example 3: A (Mortality 100%)

## Cc1cc(C(F)(C(F)(F)F)C(F)(F)F)ccc1NC(=O)c1cccc(I)c1C(=O)NC(C)CS(=O)(=O)N1CC[S+]([O-])CC1 (stereo not drawn) [1-56]
[1]
  Insecticidal effect (mortality grade), Test Example 1: A (Mortality 100%)
[2]
  Insecticidal effect (mortality grade), Test Example 2: A (Mortality 100%)
[3]
  Insecticidal effect (mortality grade), Test Example 3: A (Mortality 100%)

## Cc1cc(C(F)(C(F)(F)F)C(F)(F)F)ccc1NC(=O)c1cccc(I)c1C(=O)NC(C)CS(=O)(=O)NCCCl (stereo not drawn) [1-71]
[1]
  Insecticidal effect (mortality grade), Test Example 1: A (Mortality 100%)
[2]
  Insecticidal effect (mortality grade), Test Example 2: A (Mortality 100%)
[3]
  Insecticidal effect (mortality grade), Test Example 3: A (Mortality 100%)

## CCCCNS(=O)(=O)CC(C)NC(=O)c1c(I)cccc1C(=O)Nc1ccc(C(F)(C(F)(F)F)C(F)(F)F)cc1C (stereo not drawn) [1-12]
[1]
  Insecticidal effect (mortality grade), Test Example 1: A (Mortality 100%)
[2]
  Insecticidal effect (mortality grade), Test Example 2: A (Mortality 100%)
[3]
  Insecticidal effect (mortality grade), Test Example 3: A (Mortality 100%)

## Cc1cc(C(F)(C(F)(F)F)C(F)(F)F)ccc1NC(=O)c1cccc(I)c1C(=O)NC(C)CS(=O)(=O)N[C@@H](C)c1ccccc1 (stereo partly drawn) [1-46]
[1]
  Insecticidal effect (mortality grade), Test Example 1: A (Mortality 100%)
[2]
  Insecticidal effect (mortality grade), Test Example 2: A (Mortality 100%)
[3]
  Insecticidal effect (mortality grade), Test Example 3: A (Mortality 100%)

## Cc1cc(C(F)(C(F)(F)F)C(F)(F)F)ccc1NC(=O)c1cccc(I)c1C(=O)NC(C)CS(=O)(=O)NCc1ccc([N+](=O)[O-])cc1 (stereo not drawn) [1-36]
[1]
  Insecticidal effect (mortality grade), Test Example 1: A (Mortality 100%)
[2]
  Insecticidal effect (mortality grade), Test Example 2: A (Mortality 100%)
[3]
  Insecticidal effect (mortality grade), Test Example 3: A (Mortality 100%)

## Cc1cc(C(F)(C(F)(F)F)C(F)(F)F)ccc1NC(=O)c1cccc(I)c1C(=O)NC(C)CS(=O)(=O)NCc1ccc(C#N)cc1 (stereo not drawn) [1-37]
[1]
  Insecticidal effect (mortality grade), Test Example 1: A (Mortality 100%)
[2]
  Insecticidal effect (mortality grade), Test Example 2: A (Mortality 100%)
[3]
  Insecticidal effect (mortality grade), Test Example 3: A (Mortality 100%)

## Cc1cc(C(F)(C(F)(F)F)C(F)(F)F)ccc1NC(=O)c1cccc(I)c1C(=O)NC(C)(C)CS(N)(=O)=O [1-175, 3-iodo-N^1-{2-methyl-4-[1,2,2,2-tetrafluoro-1-(trifluoromethyl)ethyl]phenyl}-N^2-(2-sulfamoyl-1,1-dimethylethyl)phthalamide]
[1]
  Insecticidal effect (mortality grade), Test Example 1: A (Mortality 100%)
[2]
  Insecticidal effect (mortality grade), Test Example 2: A (Mortality 100%)
[3]
  Insecticidal effect (mortality grade), Test Example 3: A (Mortality 100%)

## CCN(CC)S(=O)(=O)CC(C)NC(=O)c1c(I)cccc1C(=O)Nc1ccc(OC(F)(F)F)cc1C (stereo not drawn) [1-276]
[1]
  Insecticidal effect (mortality grade), Test Example 1: A (Mortality 100%)
[2]
  Insecticidal effect (mortality grade), Test Example 2: E (Mortality less than 50%)
[3]
  Insecticidal effect (mortality grade), Test Example 3: E (Mortality less than 50%)

## CNS(=O)(=O)CC(C)(C)NC(=O)c1c(I)cccc1C(=O)Nc1ccc(C(F)(C(F)(F)F)C(F)(F)F)cc1C [1-176]
[1]
  Insecticidal effect (mortality grade), Test Example 1: A (Mortality 100%)
[2]
  Insecticidal effect (mortality grade), Test Example 2: A (Mortality 100%)
[3]
  Insecticidal effect (mortality grade), Test Example 3: A (Mortality 100%)

## Cc1cc(C(F)(C(F)(F)F)C(F)(F)F)ccc1NC(=O)c1cccc(I)c1C(=O)NC(C)CS(=O)(=O)Nc1ccccc1 (stereo not drawn) [1-106]
[1]
  Insecticidal effect (mortality grade), Test Example 1: A (Mortality 100%)
[2]
  Insecticidal effect (mortality grade), Test Example 2: E (Mortality less than 50%)
[3]
  Insecticidal effect (mortality grade), Test Example 3: E (Mortality less than 50%)

## Cc1cc(C(F)(C(F)(F)F)C(F)(F)F)ccc1NC(=O)c1cccc(I)c1C(=O)NC(C)(C)CS(=O)(=O)NCCS(C)(=O)=O [1-83]
[1]
  Insecticidal effect (mortality grade), Test Example 1: A (Mortality 100%)
[2]
  Insecticidal effect (mortality grade), Test Example 2: A (Mortality 100%)
[3]
  Insecticidal effect (mortality grade), Test Example 3: A (Mortality 100%)

## Cc1cc(C(F)(C(F)(F)F)C(F)(F)F)ccc1NC(=O)c1cccc(I)c1C(=O)NC(C)CS(=O)(=O)NCc1ccccc1Br (stereo not drawn) [1-25]
[1]
  Insecticidal effect (mortality grade), Test Example 1: A (Mortality 100%)
[2]
  Insecticidal effect (mortality grade), Test Example 2: A (Mortality 100%)
[3]
  Insecticidal effect (mortality grade), Test Example 3: A (Mortality 100%)

## CSCC(C)NS(=O)(=O)CC(C)NC(=O)c1c(I)cccc1C(=O)Nc1ccc(C(F)(C(F)(F)F)C(F)(F)F)cc1C (stereo not drawn) [1-91]
[1]
  Insecticidal effect (mortality grade), Test Example 1: A (Mortality 100%)
[2]
  Insecticidal effect (mortality grade), Test Example 2: A (Mortality 100%)
[3]
  Insecticidal effect (mortality grade), Test Example 3: A (Mortality 100%)

## Cc1cc(C(F)(C(F)(F)F)C(F)(F)F)ccc1NC(=O)c1cccc(I)c1C(=O)NC(C)CS(=O)(=O)NCc1cccc([N+](=O)[O-])c1 (stereo not drawn) [1-30]
[1]
  Insecticidal effect (mortality grade), Test Example 1: A (Mortality 100%)
[2]
  Insecticidal effect (mortality grade), Test Example 2: A (Mortality 100%)
[3]
  Insecticidal effect (mortality grade), Test Example 3: A (Mortality 100%)

## Cc1cc(C(F)(C(F)(F)F)C(F)(F)F)ccc1NC(=O)c1cccc(I)c1C(=O)NC(C)CS(=O)(=O)N(C)C (stereo not drawn) [1-3]
[1]
  Insecticidal effect (mortality grade), Test Example 1: A (Mortality 100%)
[2]
  Insecticidal effect (mortality grade), Test Example 2: A (Mortality 100%)
[3]
  Insecticidal effect (mortality grade), Test Example 3: A (Mortality 100%)

## Cc1cc(C(F)(C(F)(F)F)C(F)(F)F)ccc1NC(=O)c1cccc(I)c1C(=O)NC(C)CS(=O)(=O)N(C)Cc1ccccc1 (stereo not drawn) [1-42]
[1]
  Insecticidal effect (mortality grade), Test Example 1: A (Mortality 100%)
[2]
  Insecticidal effect (mortality grade), Test Example 2: A (Mortality 100%)
[3]
  Insecticidal effect (mortality grade), Test Example 3: A (Mortality 100%)

## CCS(=O)(=O)CCNS(=O)(=O)CC(C)(C)NC(=O)c1c(I)cccc1C(=O)Nc1ccc(C(F)(C(F)(F)F)C(F)(F)F)cc1C [1-86]
[1]
  Insecticidal effect (mortality grade), Test Example 1: A (Mortality 100%)
[2]
  Insecticidal effect (mortality grade), Test Example 2: A (Mortality 100%)
[3]
  Insecticidal effect (mortality grade), Test Example 3: A (Mortality 100%)

## CCN(CC)S(=O)(=O)CC(C)(C)NC(=O)c1c(I)cccc1C(=O)Nc1ccc(Cl)c(Cl)c1Cl [1-268]
[1]
  Insecticidal effect (mortality grade), Test Example 1: A (Mortality 100%)
[2]
  Insecticidal effect (mortality grade), Test Example 2: A (Mortality 100%)
[3]
  Insecticidal effect (mortality grade), Test Example 3: A (Mortality 100%)

## Cc1cc(C(F)(C(F)(F)F)C(F)(F)F)ccc1NC(=O)c1cccc(I)c1C(=O)NC(C)CS(=O)(=O)N1CCSCC1 (stereo not drawn) [1-55]
[1]
  Insecticidal effect (mortality grade), Test Example 1: A (Mortality 100%)
[2]
  Insecticidal effect (mortality grade), Test Example 2: A (Mortality 100%)
[3]
  Insecticidal effect (mortality grade), Test Example 3: A (Mortality 100%)

## Cc1cc(C(F)(C(F)(F)F)C(F)(F)F)ccc1NC(=O)c1cccc(I)c1C(=O)NC(C)CS(=O)(=O)N[C@H](C)c1ccccc1 (stereo partly drawn) [1-45]
[1]
  Insecticidal effect (mortality grade), Test Example 1: A (Mortality 100%)
[2]
  Insecticidal effect (mortality grade), Test Example 2: A (Mortality 100%)
[3]
  Insecticidal effect (mortality grade), Test Example 3: A (Mortality 100%)

## CCN(CC)S(=O)(=O)CC(C)(C)NC(=O)c1c(I)cccc1C(=O)Nc1ccc(OC(F)(F)F)cc1Cl [1-286]
[1]
  Insecticidal effect (mortality grade), Test Example 1: A (Mortality 100%)
[2]
  Insecticidal effect (mortality grade), Test Example 2: A (Mortality 100%)
[3]
  Insecticidal effect (mortality grade), Test Example 3: E (Mortality less than 50%)

## Cc1cc(C(F)(C(F)(F)F)C(F)(F)F)ccc1NC(=O)c1cccc(I)c1C(=O)NC(C)CS(=O)(=O)NCc1ccccn1 (stereo not drawn) [1-39]
[1]
  Insecticidal effect (mortality grade), Test Example 1: A (Mortality 100%)
[2]
  Insecticidal effect (mortality grade), Test Example 2: A (Mortality 100%)
[3]
  Insecticidal effect (mortality grade), Test Example 3: A (Mortality 100%)
